In US7723068B2, “Gene cluster involved in safracin biosynthesis and its uses for genetic engineering” (PharmaMar, S.A., priority 2002, dated 2010):

Columns and labels:
[1] = Antibacterial and antitumoral activities, general statements; settings: compared with safracin A / safracin B
[2] = different tumor cell lines; background; cited from earlier work
PROTEIN synthesis = assay: Secondary Screening, Macromolecules Synthesis PROTEIN; format: cell-based; settings: Secondary Evaluation
DNA synthesis = assay: Secondary Screening, Macromolecules Synthesis DNA; format: cell-based; settings: Secondary Evaluation
Bacillus subtilis = assay: Antimicrobial activity on solid medium, disk; format: cell-based; settings: Bacillus subtilis, 10 μg/disk (6 mm diameter)
Procedure: Antimicrobial activity: On solid medium Bacillus subtilis. 10 μg/disk (6 mm diameter): 10 mm inhibition zone Spectroscopic Data: […]

DU-145 [3] = settings: Prostate
LN-caP [4] = settings: Prostate
IGROV [5] = settings: Ovary
IGROV-ET [6] = settings: Ovary
SK-BR3 [7] = settings: Breast
SK-MEL-28 [8] = settings: Melanoma
A549 [9] = settings: NSCL
K-562 [10] = settings: Leukemia
PANC1 [11] = settings: Pancreas
HT29 [12] = settings: Colon
LOVO [13] = settings: Colon
LOVO-DOX [14] = settings: Colon
HELA [15] = settings: Cervix
HELA-APL [16] = settings: Cervix
DU-145 [17] = assay: cells; settings: Homo sapiens
LN-caP [18] = assay: cells; settings: Homo sapiens, LNCaP
IGROV [19] = assay: cells
IGROV-ET [20] = assay: cells
SK-BR3 [21] = assay: cells; settings: Homo sapiens
SK-MEL-28 [22] = assay: cells; settings: Homo sapiens
A549 [23] = assay: cells; settings: Homo sapiens
K-562 [24] = assay: cells; settings: Homo sapiens
PANC1 [25] = assay: cells; settings: Homo sapiens
HT29 [26] = assay: cells; settings: Homo sapiens
LOVO [27] = assay: cells; settings: Homo sapiens
LOVO-DOX [28] = assay: cells
HELA [29] = assay: cells; settings: Homo sapiens
HELA-APL [30] = assay: cells
[31] = Biological Activities of natural precursors (test not specified)

Question: For `COC1=C(C)C(=O)C2=C(C1=O)[C@H](CNC(=O)[C@H](C)N)N1C[C@@H]3Cc4cc(C)c(OC)c(O)c4[C@H]([C@@H]1C2)N3C` [Safracin A, reference compound], which “antibacterial and antitumoral activities (in words)” value [1] is on record?
Answer: less antibiotic and antitumoral activity

Question: And the “antitumor and antibacterial activity (in words)” value [2]?
Answer: possess antitumor activity in addition to antibacterial activity

Question: For `COC1=C(C)C(=O)C2=C(C1=O)[C@H](CNC(=O)[C@H](C)N)N1[C@@H](O)[C@H]3Cc4cc(C)c(OC)c(O)c4[C@@H]([C@@H]1C2)N3C` [Safracin B], which “antitumor and antibacterial activity (in words)” value [2] is on record?
Answer: possess antitumor activity in addition to antibacterial activity

Question: Which results are given for `COC1=C(C)C(=O)C2=C(C1=O)C(CNC(=O)C(C)N)N1CC3Cc4cc(C)c(OC)c(O)c4C(N3)C1C2` (stereo not drawn) [Safracin E]?
Answer: IC50 (PROTEIN synthesis): 15.7 µM; IC50 (DNA synthesis): > 19.6 µM; zone of inhibition at 10 µg/disc (Bacillus subtilis): 9.5 mm; antibacterial and antitumoral activities (in words) [1]: the same antibacterial and antitumoral activities as safracin B and safracin A, respectively; TGI DU-145 (DU-145 [3]): 19.6 µM; TGI LN-caP (LN-caP [4]): 7.7 µM; TGI IGROV (IGROV [5]): 8.85 µM; TGI IGROV-ET (IGROV-ET [6]): 8.25 µM; TGI SK-BR3 (SK-BR3 [7]): 9.24 µM; TGI SK-MEL-28 (SK-MEL-28 [8]): 6.93 µM; TGI A549 (A549 [9]): >19.6 µM; TGI K-562 (K-562 [10]): 8.21 µM; TGI PANC1 (PANC1 [11]): 14.7 µM; TGI HT29 (HT29 [12]): 19.6 µM; TGI LOVO (LOVO [13]): >19.6 µM; TGI LOVO-DOX (LOVO-DOX [14]): 9.44 µM; TGI HELA (HELA [15]): 7.29 µM; TGI HELA-APL (HELA-APL [16]): 7.25 µM; GI50 (DU-145 [17]; DU-145, read-out: GI50 DU-145): 8.34 µM; CC50 (DU-145 [17]; DU-145, read-out: LC50 DU-145): > 19.6 µM; GI50 (LN-caP [18]; read-out: GI50 LN-caP): 3.86 µM; CC50 (LN-caP [18]; read-out: LC50 LN-caP): 15.4 µM; GI50 (IGROV [19]; read-out: GI50 IGROV): 4.5 µM; CC50 (IGROV [19]; read-out: LC50 IGROV): 17.4 µM; GI50 (IGROV-ET [20]; read-out: GI50 IGROV-ET): 4.54 µM; CC50 (IGROV-ET [20]; read-out: LC50 IGROV-ET): 14.9 µM; GI50 (SK-BR3 [21]; SK-BR-3, read-out: GI50 SK-BR3): 5.05 µM; CC50 (SK-BR3 [21]; SK-BR-3, read-out: LC50 SK-BR3): 17 µM; GI50 (SK-MEL-28 [22]; SK-MEL-28, read-out: GI50 SK-MEL-28): 3.94 µM; CC50 (SK-MEL-28 [22]; SK-MEL-28, read-out: LC50 SK-MEL-28): 12.2 µM; GI50 (A549 [23]; A549, read-out: GI50 A549): 19.6 µM; CC50 (A549 [23]; A549, read-out: LC50 A549): > 19.6 µM; GI50 (K-562 [24]; K562, read-out: GI50 K-562): 4.25 µM; CC50 (K-562 [24]; K562, read-out: LC50 K-562): 15.9 µM; GI50 (PANC1 [25]; PANC-1, read-out: GI50 PANC1): 6.05 µM; CC50 (PANC1 [25]; PANC-1, read-out: LC50 PANC1): > 19.6 µM; GI50 (HT29 [26]; HT-29, read-out: GI50 HT29): 7.89 µM; CC50 (HT29 [26]; HT-29, read-out: LC50 HT29): > 19.6 µM; GI50 (LOVO [27]; read-out: GI50 LOVO): 7.15 µM; CC50 (LOVO [27]; read-out: LC50 LOVO): > 19.6 µM; GI50 (LOVO-DOX [28]; read-out: GI50 LOVO-DOX): 5.07 µM; CC50 (LOVO-DOX [28]; read-out: LC50 LOVO-DOX): 17.5 µM; GI50 (HELA [29]; read-out: GI50 HELA): 4.15 µM; CC50 (HELA [29]; read-out: LC50 HELA): 12.8 µM; GI50 (HELA-APL [30]; read-out: GI50 HELA-APL): 4.03 µM; CC50 (HELA-APL [30]; read-out: LC50 HELA-APL): 13 µM

Question: With `COc1c(C)cc(C[C@H](N)C(=O)O)cc1O` [Safracin P-2, 3-hydroxy-5-methyl-O-methyltyrosine] as the compound, how does the “Biological Activities” value [31] read?
Answer: NO ACTIVE

Question: For `COc1ccc(C[C@H](N)C(=O)O)cc1C` [Safracin P-14, 3-methyl-O-methyltyrosine], which “Biological Activities” value [31] is on record?
Answer: NO ACTIVE
